Values quoted from earlier work in article PMC5641599 (Molecular Metabolism, 2017).
Where two headings read alike, the source gives them in different places.

Test system: MC4R variants
Details: cited from earlier work

NDP-MSH
Binding Bmax (% of WT) (MC4R I301T, ref Vaisse C, J Clin Invest, 2000): 20.0 % of WT | Binding Bmax (% of WT) (MC4R I301T, ref Xiang Z, Biochemistry, 2006): 35.6 % of WT | Binding Bmax (% of WT) (MC4R I316S, ref Xiang Z, Biochemistry, 2006): 55.6 % of WT | Binding Bmax (% of WT) (MC4R I316S, ref Yeo GS, Hum Mol Genet, 2003): 28.0 % of WT | Binding Bmax (% of WT) (MC4R I317T, ref Nijenhuis WA, J Biol Chem, 2003): 42.0 % of WT | Binding Bmax (% of WT) (MC4R I317T, ref VanLeeuwen, J Biol Chem, 2003): 66.7 % of WT | Binding Bmax (% of WT) (MC4R I317T, ref Xiang Z, Biochemistry, 2006): 20.0 % of WT | Binding Bmax (% of WT) (MC4R I317V, ref Fan ZC, J Cell Mol Med, 2009): 94.0 % of WT | Binding Bmax (% of WT) (MC4R I317V, ref Xiang Z, Biochemistry, 2010): 91.9 % of WT | Binding Bmax (% of WT) (MC4R L54P, ref Tan K, Endocrinology, 2009): 32.5 % of WT | Binding Bmax (% of WT) (MC4R L106P, ref Xiang Z, Biochemistry, 2006): 2.2 % of WT | Binding Bmax (% of WT) (MC4R L106P, ref Yeo GS, Hum Mol Genet, 2003): 18.7 % of WT | Binding Bmax (% of WT) (MC4R L304F, ref van der Berg L, Obesity, 2011): 40.0 % of WT | Binding Bmax (% of WT) (MC4R L325F, ref Fan ZC, J Cell Mol Med, 2009): 92.0 % of WT | Binding Bmax (% of WT) (MC4R L325F, ref Larsen LH, J Clin Endocrinol Metab, 2005): 0.0 % of WT | Binding Bmax (% of WT) (MC4R L325F, ref Xiang Z, Biochemistry, 2010): 70.3 % of WT | Binding Bmax (% of WT) (MC4R N62S, HEK293 cell line, ref Huang H, Int J Biol Sci, 2014): 25.0 % of WT | Binding Bmax (% of WT) (MC4R N62S, ref Tao YX, Endocrinology, 2003): 5.0 % of WT | Binding Bmax (% of WT) (MC4R N62S, ref Xiang Z, Biochemistry, 2006): 1.4 % of WT | Binding Bmax (% of WT) (MC4R N62S, ref Yeo GS, Hum Mol Genet, 2003): 20.0 % of WT | Binding Bmax (% of WT) (MC4R N97D, ref Xiang Z, Biochemistry, 2006): 8.9 % of WT | Binding Bmax (% of WT) (MC4R N97D, ref Yeo GS, Hum Mol Genet, 2003): 10.5 % of WT | Binding Bmax (% of WT) (MC4R N274S, ref Tao YX, Endocrinology, 2003): 144.0 % of WT | Binding Bmax (% of WT) (MC4R N274S, ref Xiang Z, Biochemistry, 2006): 66.7 % of WT | Binding Bmax (% of WT) (MC4R P48S, ref Tao YX, Endocrinology, 2003): 79.0 % of WT | Binding Bmax (% of WT) (MC4R P48S, ref Xiang Z, Biochemistry, 2010): 48.6 % of WT | Binding Bmax (% of WT) (MC4R P78L, HEK293 cell line, ref Huang H, Int J Biol Sci, 2014): 0.0 % of WT | Binding Bmax (% of WT) (MC4R P78L, ref Nijenhuis WA, J Biol Chem, 2003): 0.9 % of WT | Binding Bmax (% of WT) (MC4R P78L, ref Tao YX, Endocrinology, 2003): 0.0 % of WT | Binding Bmax (% of WT) (MC4R P78L, ref Xiang Z, Biochemistry, 2006): 0.556 % of WT | Binding Bmax (% of WT) (MC4R P299H, ref Roubert P, J Endocrinol, 2010): 0.0 % of WT | Binding Bmax (% of WT) (MC4R P299H, ref Xiang Z, Biochemistry, 2006): 1.2 % of WT | Binding Bmax (% of WT) (MC4R P299L, ref Xiang Z, Biochemistry, 2010): 2.4 % of WT | Binding Bmax (% of WT) (MC4R R305W, ref Roubert P, J Endocrinol, 2010): 193.9 % of WT | Binding Bmax (% of WT) (MC4R S58C, ref Roubert P, J Endocrinol, 2010): 27.6 % of WT | Binding Bmax (% of WT) (MC4R S58C, ref Tao YX, Endocrinology, 2003): 14.0 % of WT | Binding Bmax (% of WT) (MC4R S58C, ref Xiang Z, Biochemistry, 2006): 22.2 % of WT | Binding Bmax (% of WT) (MC4R S94R, ref Xiang Z, Biochemistry, 2010): 0.135 % of WT | Binding Bmax (% of WT) (MC4R S295P, ref Tao YX, J Clin Endocrinol Metab, 2005): 129.0 % of WT | Binding Bmax (% of WT) (MC4R S295P, ref Xiang Z, Biochemistry, 2010): 162.2 % of WT | Binding Bmax (% of WT) (MC4R T112M, ref Nijenhuis WA, J Biol Chem, 2003): 100.0 % of WT | Binding Bmax (% of WT) (MC4R T112M, ref Tao YX, J Clin Endocrinol Metab, 2005): 130.0 % of WT | Binding Bmax (% of WT) (MC4R V50M, ref Roubert P, J Endocrinol, 2010): 69.4 % of WT | Binding Bmax (% of WT) (MC4R V50M, ref Tao YX, Endocrinology, 2003): 74.0 % of WT | Binding Bmax (% of WT) (MC4R V50M, ref Xiang Z, Biochemistry, 2010): 59.5 % of WT | Binding Bmax (% of WT) (MC4R V95I, ref Xiang Z, Biochemistry, 2006): 0.7 % of WT | Binding Bmax (% of WT) (MC4R V103I, ref Ho G, J Biol Chem, 1999): 123.3 % of WT | Binding Bmax (% of WT) (MC4R V103I, ref Xiang Z, Biochemistry, 2006): 100.0 % of WT | Binding Bmax (% of WT) (MC4R Y302F, ref Roth CL, Endocrine, 2009): 80.0 % of WT | Binding Bmax (% of WT) (MC4R Y332H, ref Santoro N, BMC Med Genet, 2009): 100.0 % of WT
